Measured values reported in patent US9567300B2, “Hexahydropentaleno derivatives, preparation method and use in medicine thereof” (SUNSHINE LAKE PHARMA CO., LTD., priority 2012, dated 2017).

Columns and labels:
DPP-IV = target: T1, DPP-IV (Homo sapiens, UniProt P27487); experiment: Active inhibition DPP-IV assay (Gly-Pro-AMC substrate, fluorescence); type: biochemical; details: Gly-Pro-AMC 10 μM, 25 mM Tris pH 8.0
T1 construct: purchased R&D 1180-SE
Procedure: (§1) The following methods were used for testing the inhibitive action of the compound disclosed herein against DPP-IV, DPP-8 and DPP-9 enzymatic activity. The inhibitive ability of the compound disclosed herein against enzymatic activity of DPP-IV, DPP-8 and DPP-9 was tested. The measurements of the inhibition ratio or the 50% inhibiting concentration IC50 of every compound were based on a fixed quantity of enzyme-substrate mixtures and different concentrations of the test compounds.
DPP-IV enzyme was purchased from R&D, Catalog No. 1180-SE.
(§2) The test compound was dissolved in an appropriate amount of DMSO to prepare 100 mM mother liquor, which was divided into EP tubes and preserved at −20° C. The mother liquor was diluted with an assay buffer to prepare solutions with required concentrations. Sample solutions with different concentrations (4 μL) and certain concentration of DPP-IV (DPP-8 or DPP-9) solution (4 μL) were added into 384-well plates in turn. Referred to the instruction manual, Gly-Pro-AMC was selected as a substrate and the concentration thereof was 10 μM. The 16 mM mother liquor was prepared from the substrate and preserved at −20° C. for use. The 16 mM mother liquor was diluted with an assay buffer to a solution of known concentration. The assay buffer of DPP-IV was 25 mM Tris, and its pH was 8.0. The assay buffers of DPP-8 and DPP-9 were 50 mM Tris, and their pH was 7.5. The substrate mother liquor was diluted with an assay buffer, and the mixture (4 μL) was added into 384-well plates to prepare final solution concentration. The whole process was carried out in an ice bath. After the addition of the components of the assay system was completed, the system was centrifuged. The supernatant was then transferred to an Infinite F200 multifunctional microplate reader, and 20 fluorescence values were recorded every 30 sec. And then Slope (V0) was calculated directly by the software of microplate reader, fetching the data in the linear range. The measured reaction rate and the corresponding inhibition concentration were analyzed. Percent inhibition is I(%)=(V0−Vi)/V0×100%. Vi represents the initial reaction rate at different inhibition concentrations. V0 represents the initial reaction rate without inhibitor. Vi/V0 represents the inhibition level of inhibitor. Relevant curve chart was made with inhibition concentration as a horizontal coordinate and the value of Vi/V0 as a vertical coordinate. The IC50 values were calculated by Graph Pad Prism statistical analysis software.

DPP-9 = target: T2, DPP-9 (Homo sapiens, UniProt Q86TI2); experiment: Active inhibition DPP-9 assay (Gly-Pro-AMC substrate, fluorescence); type: biochemical; details: Gly-Pro-AMC 10 μM, 50 mM Tris pH 7.5
T2 construct: purchased Bioscience 80090
Procedure: as §1
DPP-9 enzyme was purchased from Bioscience, Catalog No. 80090.
as §2

DPP-8 = target: T3, DPP-8 (Homo sapiens, UniProt Q6V1X1); experiment: Active inhibition DPP-8 assay (Gly-Pro-AMC substrate, fluorescence); type: biochemical; details: Gly-Pro-AMC 10 μM, 50 mM Tris pH 7.5
T3 construct: purchased Biomol SE-827
Procedure: as §1
DPP-8 enzyme was purchased from Biomol, Catalog No. SE-827.
as §2

normal C57BL/6 mice = experiment: Effects of DPP-IV inhibitors on the blood glucose of normal C57BL/6 mice (oral glucose tolerance); type: in vivo; details: oral 5 mg/kg; for Nor-sugar rate % (5 mg/kg): male C57BL/6 mice, glucose 2.5 g/kg by gavage 30 min after administration; for hypoglycemic activities for C57BL/6 mice: conclusion in words
Procedure: The effects of the test compounds on the oral glucose tolerance of normal C57BL/6 mice were observed, and the hypoglycemic activities of these compounds in vivo were evaluated preliminarily.
Preparation procedure: Drugs were accurately weighed, and 5 mg of compounds of examples 3, 9 15, 16 and 17 were dissolved respectively in 20 mL of normal saline to obtain 0.25 mg/mL solutions.
Administrated Dose: The oral dose was 5 mg/kg and the gavage dose was 0.02 mL/g.
Test Method: The normal male C57BL/6 mice were grouped randomly into a blank control group, a positive control group, and treatment groups having 7 mice each group.
Administration and Serum Glucose Determination: C57BL/6 mice of each group were fasted for 18 hours before the experiment. The blood was drawn from the caudal vein of the mice and the glucose level was measured by using a blood-glucose meter. After detection, 0.25 mg/mL of positive control, 0.25 mg/mL of examples 3, 9, 15, 16 and 17 and normal saline were respectively administered to the positive control group, treatment groups and blank control group by intragastric administration. The blood glucose level (0 min) of positive control group was measured in 60 min after administration. The blood glucose levels (0 min) of the other groups were measured in 30 min after administration, and then glucose (2.5 g/kg) was administered to the mice through gavage. The blood was drawn from the caudal vein of the mice in 15 min, 30 min, 45 min, 60 min, 120 min after administration. The blood glucose levels of C57BL/6 mice were measured continuously by blood-glucose meter.
1. Glucose concentration-time curve was plotted, and AUC from 0 to 120 min and hypoglycemic rate of each dosage group at blood glucose peak were calculated.
2. Experimental data were represented in x±SD. The data were analyzed by SPSS 16.0 software. The data were compared between multiple groups using nonparametric Kruskal-Wallis H test method.

T2 sequence (Q86TI2 whole entry): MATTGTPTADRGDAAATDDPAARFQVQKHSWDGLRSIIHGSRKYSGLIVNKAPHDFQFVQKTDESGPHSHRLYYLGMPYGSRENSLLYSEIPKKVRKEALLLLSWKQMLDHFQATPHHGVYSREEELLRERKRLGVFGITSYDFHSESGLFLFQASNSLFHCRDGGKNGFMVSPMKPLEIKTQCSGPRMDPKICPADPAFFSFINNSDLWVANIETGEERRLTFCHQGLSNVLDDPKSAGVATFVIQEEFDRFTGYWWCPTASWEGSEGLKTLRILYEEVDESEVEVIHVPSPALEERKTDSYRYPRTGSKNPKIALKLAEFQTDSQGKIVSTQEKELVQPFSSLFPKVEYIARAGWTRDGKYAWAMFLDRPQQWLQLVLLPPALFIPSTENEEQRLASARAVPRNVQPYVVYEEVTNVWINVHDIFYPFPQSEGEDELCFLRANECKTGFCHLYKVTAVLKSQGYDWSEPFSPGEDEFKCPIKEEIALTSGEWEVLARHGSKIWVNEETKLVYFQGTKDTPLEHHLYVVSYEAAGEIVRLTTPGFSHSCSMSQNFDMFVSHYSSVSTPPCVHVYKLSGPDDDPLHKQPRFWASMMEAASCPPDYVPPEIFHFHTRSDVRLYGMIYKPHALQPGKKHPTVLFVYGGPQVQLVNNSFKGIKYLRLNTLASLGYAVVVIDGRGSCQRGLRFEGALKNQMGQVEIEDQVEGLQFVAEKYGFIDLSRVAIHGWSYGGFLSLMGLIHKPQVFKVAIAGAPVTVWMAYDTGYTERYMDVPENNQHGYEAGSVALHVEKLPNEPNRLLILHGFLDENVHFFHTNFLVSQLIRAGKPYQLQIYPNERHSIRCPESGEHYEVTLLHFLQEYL
T1 sequence (P27487 whole entry): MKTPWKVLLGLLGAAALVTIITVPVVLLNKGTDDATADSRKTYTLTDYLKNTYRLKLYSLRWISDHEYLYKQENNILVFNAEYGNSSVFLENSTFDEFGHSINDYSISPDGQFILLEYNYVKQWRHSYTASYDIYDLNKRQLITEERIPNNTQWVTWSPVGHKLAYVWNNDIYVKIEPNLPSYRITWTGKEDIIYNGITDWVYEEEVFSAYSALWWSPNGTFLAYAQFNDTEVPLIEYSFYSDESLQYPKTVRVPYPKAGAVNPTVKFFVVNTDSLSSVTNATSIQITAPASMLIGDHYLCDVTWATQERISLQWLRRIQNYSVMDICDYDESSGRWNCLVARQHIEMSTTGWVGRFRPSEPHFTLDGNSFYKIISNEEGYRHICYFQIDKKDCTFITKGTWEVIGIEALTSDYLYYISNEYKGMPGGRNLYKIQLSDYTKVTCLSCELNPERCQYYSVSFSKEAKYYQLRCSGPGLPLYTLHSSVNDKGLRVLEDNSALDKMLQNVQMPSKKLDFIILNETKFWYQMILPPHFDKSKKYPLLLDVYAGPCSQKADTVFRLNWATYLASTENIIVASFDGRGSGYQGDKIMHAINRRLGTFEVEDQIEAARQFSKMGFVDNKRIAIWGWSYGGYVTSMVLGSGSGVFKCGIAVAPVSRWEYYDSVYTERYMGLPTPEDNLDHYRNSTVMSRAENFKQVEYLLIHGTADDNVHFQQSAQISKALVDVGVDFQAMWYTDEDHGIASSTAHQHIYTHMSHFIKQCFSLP
T3 sequence (Q6V1X1 whole entry): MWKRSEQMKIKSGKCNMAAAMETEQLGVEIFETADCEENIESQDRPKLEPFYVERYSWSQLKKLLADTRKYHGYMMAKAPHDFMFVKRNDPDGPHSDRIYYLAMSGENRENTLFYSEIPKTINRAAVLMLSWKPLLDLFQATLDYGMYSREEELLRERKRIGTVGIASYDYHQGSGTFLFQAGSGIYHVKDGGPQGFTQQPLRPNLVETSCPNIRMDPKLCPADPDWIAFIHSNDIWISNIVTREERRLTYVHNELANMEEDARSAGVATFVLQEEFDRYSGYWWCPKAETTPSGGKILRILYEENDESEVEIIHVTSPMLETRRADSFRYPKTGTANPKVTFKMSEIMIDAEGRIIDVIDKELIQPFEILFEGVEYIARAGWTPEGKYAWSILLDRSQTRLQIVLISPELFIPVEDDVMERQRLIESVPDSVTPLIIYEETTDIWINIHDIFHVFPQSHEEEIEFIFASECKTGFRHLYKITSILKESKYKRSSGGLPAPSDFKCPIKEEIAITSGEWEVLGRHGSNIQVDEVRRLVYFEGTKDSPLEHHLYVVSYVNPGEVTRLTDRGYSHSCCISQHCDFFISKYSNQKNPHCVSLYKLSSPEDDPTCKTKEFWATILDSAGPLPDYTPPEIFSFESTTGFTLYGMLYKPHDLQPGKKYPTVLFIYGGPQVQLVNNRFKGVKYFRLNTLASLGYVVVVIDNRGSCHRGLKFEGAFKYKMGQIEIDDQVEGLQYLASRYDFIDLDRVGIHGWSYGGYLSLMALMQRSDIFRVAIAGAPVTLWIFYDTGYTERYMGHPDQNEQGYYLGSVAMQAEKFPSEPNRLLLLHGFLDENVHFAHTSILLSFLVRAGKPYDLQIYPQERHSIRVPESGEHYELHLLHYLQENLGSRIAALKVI

SMILES	IC50 (DPP-IV)	IC50 (DPP-9)	IC50 (DPP-8)	Nor-sugar rate % (5 mg/kg) (normal C57BL/6 mice)	hypoglycemic activities for C57BL/6 mice (normal C57BL/6 mice)
C[C@@]1(NCC(=O)N2CCC[C@H]2C#N)C[C@H]2C[C@@H](OC3CC3)C[C@H]2C1 [Example 14, (S)-1-(2-(((2r,3aR,5S,6aS)-5-cyclopropoxy-2-methyloctahydropentalen-2-yl)amino)acetyl)pyrrolidine-2-carbonitrile]	9.23 nM				
C[C@@]1(NCC(=O)N2C3C[C@H]3C[C@H]2C#N)C[C@H]2C[C@@H](O)C[C@H]2C1 (stereo partly drawn) [Example 12, (1S,3S,5S)-2-(2-(((2r,3aR,5S,6aS)-5-hydroxy-2-methyloctahydropentalen-2-yl)amino)acetyl)-2-azabicyclo[3.1.0]hexane-3-carbonitrile]	171 nM				
C[C@@]1(NCC(=O)N2CCC[C@H]2C#N)C[C@H]2C[C@@H](O)C[C@H]2C1 [Example 5, (S)-1-(2-(((2r,3aR,5S,6aS)-5-hydroxy-2-methyloctahydropentalen-2-yl)amino)acetyl)pyrrolidine-2-carbonitrile]	27.4 nM	4330 nM			
CO[C@H]1C[C@@H]2C[C@@](C)(NCC(=O)N3CCC[C@H]3C#N)C[C@@H]2C1 [Example 10, (S)-1-(2-(((2r,3aR,5R,6aS)-5-methoxy-2-methyloctahydropentalen-2-yl)amino)acetyl)pyrrolidine-2-carbonitrile]	2.43 nM	62 nM	5980 nM		
CO[C@@H]1C[C@@H]2CC(NCC(=O)N3C[C@@H](F)C[C@H]3C#N)C3(CC3)[C@@H]2C1 (stereo partly drawn) [Example 11, (2S,4S)-4-fluoro-1-(2-(((3a′S,5′R,6a′R)-5′-methoxyhexahydro-2′H-spiro[cyclopropane-1,1′-pentalen]-2′-yl)amino)acetyl)pyrrolidine-2-carbonitrile]	105 nM	916 nM	14200 nM		
C[C@@]1(NCC(=O)N2C[C@@H](F)C[C@H]2C#N)C[C@H]2CC3(CCO3)C[C@H]2C1 (stereo partly drawn) [Example 19, (2S,4S)-4-fluoro-1-(2-(((3a′R,5′r,6a′S)-5′-methylhexahydro-1′H-spiro[oxetane-2,2′-pentalen]-5′-yl)amino)acetyl)pyrrolidine-2-carbonitrile]	25.8 nM				
CCO[C@@H]1C[C@@H]2C[C@@](C)(NCC(=O)N3CCC[C@H]3C#N)C[C@@H]2C1 [Example 6, (S)-1-(2-(((2r,3aR,5S,6aS)-5-ethoxy-2-methyloctahydropentalen-2-yl)amino)acetyl)pyrrolidine-2-carbonitrile]	4.52 nM	193 nM	18200 nM		
C#CC1C[C@@H]2C[C@@](C)(NCC(=O)N3C[C@@H](F)C[C@H]3C#N)C[C@@H]2C1 (stereo partly drawn) [Example 20, (2S,4S)-1-(2-(((2s,3aR,6aS)-5-ethynyl-2-methyloctahydropentalen-2-yl)amino)acetyl)-4-fluoropyrrolidine-2-carbonitrile]	4.18 nM	91 nM	2070 nM		
CC(=O)O[C@@H]1C[C@@H]2C[C@@](C)(NCC(=O)N3CCC[C@H]3C#N)C[C@@H]2C1 [Example 18, (2S,3aR,5r,6aS)-5-((2-((S)-2-cyanopyrrolidin-1-yl)-2-oxoethyl)amino)-5-methyloctahydropentalen-2-yl acetate]	2.53 nM	242 nM	20100 nM		
CCO[C@@H]1C[C@@H]2C[C@@](C)(NCC(=O)N3C[C@@H](F)C[C@H]3C#N)C[C@@H]2C1 [Example 7, (2S,4S)-1-(2-(((2r,3aR,5S,6aS)-5-ethoxy-2-methyloctahydropentalen-2-yl)amino)acetyl)-4-fluoropyrrolidine-2-carbonitrile]	4.29 nM	27 nM	2670 nM		
C[C@@]1(NCC(=O)N2C[C@@H](F)C[C@H]2C#N)C[C@H]2C[C@H](O)C[C@H]2C1 [Example 9, (2S,4S)-4-fluoro-1-(2-(((2r,3aR,5R,6aS)-5-hydroxy-2-methyloctahydropentalen-2-yl)amino)acetyl)pyrrolidine-2-carbonitrile]	4.01 nM	29 nM	2850 nM	18.7%	good hypoglycemic activities
CC(=O)O[C@@H]1C[C@@H]2C[C@@](C)(NCC(=O)N3C[C@@H](F)C[C@H]3C#N)C[C@@H]2C1 [Example 17, (2S,3aR,5r,6aS)-5-((2-((2S,4S)-2-cyano-4-fluoropyrrolidin-1-yl)-2-oxoethyl)amino)-5-methyloctahydropentalen-2-yl acetate]	2.72 nM	48 nM	3700 nM	30.4%	good hypoglycemic activities
C[C@@]1(NCC(=O)N2CCC[C@H]2C#N)C[C@H]2CC(C#N)C[C@H]2C1 (stereo partly drawn) [Example 16, (2S)-1-(2-(((2s,3aR,6aS)-5-cyano-2-methyloctahydropentalen-2-yl)amino)acetyl)pyrrolidine-2-carbonitrile]	1.37 nM	340 nM	12800 nM	24.69%	good hypoglycemic activities
C[C@@]1(NCC(=O)N2C[C@@H](F)C[C@H]2C#N)C[C@H]2C[C@@H](OCC3CC3)C[C@H]2C1 [Example 8, (2S,4S)-1-(2-(((2r,3aR,5S,6aS)-5-(cyclopropylmethoxy)-2-methyloctahydropentalen-2-yl)amino)acetyl)-4-fluoropyrrolidine-2-carbonitrile]	6.91 nM	31 nM	3800 nM		
C[C@@]1(NCC(=O)N2C[C@@H](F)C[C@H]2C#N)C[C@H]2C[C@@H](OC3CC3)C[C@H]2C1 [Example 13, (2S,4S)-1-(2-(((2r,3aR,5S,6aS)-5-cyclopropoxy-2-methyloctahydropentalen-2-yl)amino)acetyl)-4-fluoropyrrolidine-2-carbonitrile]	9.25 nM				
CO[C@@H]1C[C@@H]2C[C@@](C)(NCC(=O)N3C[C@@H](F)C[C@H]3C#N)C[C@@H]2C1 [Example 2, (2S,4S)-4-fluoro-1-(2-(((2r,3aR,5S,6aS)-5-methoxy-2-methyloctahydropentalen-2-yl)amino)acetyl)pyrrolidine-2-carbonitrile]	4.03 nM	54 nM	1580 nM		
CO[C@H]1C[C@@H]2C[C@@](C)(NCC(=O)N3C[C@@H](F)C[C@H]3C#N)C[C@@H]2C1 [Example 4, (2S,4S)-4-fluoro-1-(2-(((2r,3aR,5R,6aS)-5-methoxy-2-methyloctahydropentalen-2-yl)amino)acetyl)pyrrolidine-2-carbonitrile]	2.5 nM	12.4 nM	900 nM		
CO[C@@H]1C[C@@H]2C[C@@](C)(NCC(=O)N3CCC[C@H]3C#N)C[C@@H]2C1 [Example 1, (S)-1-(2-(((2r,3aR,5S,6aS)-5-methoxy-2-methyloctahydropentalen-2-yl)amino)acetyl)pyrrolidine-2-carbonitrile]	11.3 nM	4600 nM	50500 nM		
